pIC50: −log10 of the molar value.
Test system: MOLM-13 cells
Assay: MOLM-13 48 Hour Cell Proliferation Assay
Type: cell-based
Settings: Homo sapiens
Description: MOLM-13 (DSMZ) cells were seeded at 1000 cells per well in a volume of 44 μL in a Falcon 384-well tissue culture treated clear bottom microplate in RPMI 1640 media containing 10% fetal bovine serum using a Multidrop Combi (ThermoFisher Scientific). Cells were incubated overnight at 37° C. in a humidified tissue culture incubator. The Mosquito® HTS Liquid Handler was used to make a compound/media intermediate plate by aliquoting 1 μL of compound from the initial compound dilution plate (concentrations ranging from 10.0 mM to 38.0 nM in 100% DMSO) into a V bottom 384-well screen matrix plate containing 49 μL of media containing the appropriate serum (50-fold dilution, 2% DMSO). The Apricot liquid handling system was used to transfer 6.2 μL compounds from the intermediate plate into the Falcon 384-well tissue culture plate containing 44 μL cells (10-point, 4-fold dilution spanning concentrations 25.0 μM to […], 0.25% DMSO final), and placed in a humidified tissue culture incubator at 37° C. After 48 hours, 25 μL of Cell Titer-Glo reagent (Promega) was added to each well using a Multidrop Combi. The plate was protected from light and placed on an IKA plate shaker for at 300 rpm for 10 minutes at room temperature. The plate was read on an EnVision plate reader (Perkin Elmer) using the Ultra Sensitive Luminescence protocol. Data analysis was performed by normalizing the raw luminescence units to an average of the positive control values for staurosporine (100% cell death) and the negative control values for DMSO (0% cell death). An IC50 was calculated using a 4-parameter logistic nonlinear regression model in GraphPad Prism.

Structure (SMILES) | pIC50
CCc1cc(N(C)C)c2ccc(OC[C@H]3O[C@@H](n4cc(-c5ccn(C)n5)c5c(N)ncnc54)[C@@H](F)[C@@H]3O)cc2n1 [I-153] | 5.00 to 6.00
CCc1cc(N(C)C2CC2)c2ccc(OC[C@H]3O[C@@H](n4cc(-c5ccn(C)n5)c5c(N)ncnc54)[C@@H](F)[C@@H]3O)cc2n1 [I-154] | 5.00 to 6.00
CCc1cc(N(C)CC2CC2)c2ccc(OC[C@H]3O[C@@H](n4cc(-c5ccn(C)n5)c5c(N)ncnc54)[C@@H](F)[C@@H]3O)cc2n1 [I-155] | 5.00 to 6.00
CCc1cc(N2CCOCC2)c2ccc(OC[C@H]3O[C@@H](n4cc(-c5ccn(C)n5)c5c(N)ncnc54)[C@@H](F)[C@@H]3O)cc2n1 [I-156] | 5.00 to 6.00
CCc1cc(NCCOC)c2ncc(OC[C@H]3O[C@@H](n4cc(-c5ccn(C)n5)c5c(N)ncnc54)[C@H](O)[C@@H]3O)cc2n1 [I-159] | < 5.00
CCc1cc(N(C)C2CC2)c2ccc(OC[C@H]3O[C@@H](n4cc(-c5ccn(C)n5)c5c(N)ncnc54)C[C@@H]3O)cc2n1 [I-160] | 5.00 to 6.00

Biological target: METTL3/METTL14 (Homo sapiens, UniProt Q86U44)
Assay: METTL3-14 Standard Enzyme Assay (METTL3 biochemical assay)
Settings: not given
Method in brief: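 Tritium transfer from ³H-SAM (100 nM) to biotinylated RNA (100 nM) captured on streptavidin flashplates and counted by scintillation. Enzyme complex (2.5 nM) with compound, 5 min preincubation, 30 min reaction at ambient temperature, HEPES pH 7.5 buffer, stopped by excess unlabeled SAM.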

Sequence of METTL3/METTL14 (Q86U44 whole entry, species assumed): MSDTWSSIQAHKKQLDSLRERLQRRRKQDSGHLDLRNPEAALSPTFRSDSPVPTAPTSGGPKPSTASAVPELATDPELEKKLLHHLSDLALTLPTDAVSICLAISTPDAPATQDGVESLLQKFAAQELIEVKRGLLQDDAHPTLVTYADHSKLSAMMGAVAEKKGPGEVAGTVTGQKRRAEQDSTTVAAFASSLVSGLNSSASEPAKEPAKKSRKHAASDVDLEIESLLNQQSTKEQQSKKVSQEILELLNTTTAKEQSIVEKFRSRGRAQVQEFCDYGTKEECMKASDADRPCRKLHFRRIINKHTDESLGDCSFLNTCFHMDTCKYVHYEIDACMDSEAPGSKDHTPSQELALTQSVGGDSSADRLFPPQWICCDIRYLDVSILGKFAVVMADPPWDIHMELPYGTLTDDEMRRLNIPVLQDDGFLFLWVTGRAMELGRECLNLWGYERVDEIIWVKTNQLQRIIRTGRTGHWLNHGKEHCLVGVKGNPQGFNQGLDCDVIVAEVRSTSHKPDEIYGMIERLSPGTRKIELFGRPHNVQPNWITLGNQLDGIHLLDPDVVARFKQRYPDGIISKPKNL
Sequence of METTL3/METTL14 (Q9HCE5 whole entry partner, species assumed): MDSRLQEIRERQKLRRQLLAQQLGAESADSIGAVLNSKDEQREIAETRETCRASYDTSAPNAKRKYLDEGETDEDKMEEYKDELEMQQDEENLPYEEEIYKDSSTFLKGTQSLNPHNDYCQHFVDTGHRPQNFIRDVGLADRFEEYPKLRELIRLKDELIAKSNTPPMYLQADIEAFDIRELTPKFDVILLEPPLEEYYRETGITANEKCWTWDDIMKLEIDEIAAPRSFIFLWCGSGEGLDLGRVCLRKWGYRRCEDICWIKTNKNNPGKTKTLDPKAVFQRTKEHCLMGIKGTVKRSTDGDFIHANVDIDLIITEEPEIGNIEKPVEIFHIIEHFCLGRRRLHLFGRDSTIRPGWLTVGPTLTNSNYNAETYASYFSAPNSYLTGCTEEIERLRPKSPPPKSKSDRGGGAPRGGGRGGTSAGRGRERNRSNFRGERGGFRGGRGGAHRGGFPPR

Structure (SMILES) | pIC50
CCc1cc(N(C)C)c2ccc(OC[C@H]3O[C@@H](n4cc(-c5ccn(C)n5)c5c(N)ncnc54)[C@@H](F)[C@@H]3O)cc2n1 [I-153] | > 8.00
CCc1cc(N(C)C2CC2)c2ccc(OC[C@H]3O[C@@H](n4cc(-c5ccn(C)n5)c5c(N)ncnc54)[C@@H](F)[C@@H]3O)cc2n1 [I-154] | > 8.00
CCc1cc(N(C)CC2CC2)c2ccc(OC[C@H]3O[C@@H](n4cc(-c5ccn(C)n5)c5c(N)ncnc54)[C@@H](F)[C@@H]3O)cc2n1 [I-155] | > 8.00
CCc1cc(N2CCOCC2)c2ccc(OC[C@H]3O[C@@H](n4cc(-c5ccn(C)n5)c5c(N)ncnc54)[C@@H](F)[C@@H]3O)cc2n1 [I-156] | > 8.00
CCc1cc(NCCOC)c2ncc(OC[C@H]3O[C@@H](n4cc(-c5ccn(C)n5)c5c(N)ncnc54)[C@H](O)[C@@H]3O)cc2n1 [I-159] | > 8.00
CCc1cc(N(C)C2CC2)c2ccc(OC[C@H]3O[C@@H](n4cc(-c5ccn(C)n5)c5c(N)ncnc54)C[C@@H]3O)cc2n1 [I-160] | > 8.00
CNc1ccc2sc(CC[C@H]3O[C@@H](n4cc(-c5ccn(C)n5)c5c(N)ncnc54)[C@@H](F)[C@@H]3O)cc2n1 [I-190] | > 8.00
Cn1ccc(-c2cn([C@@H]3O[C@H](COc4ccc5cnc(N6CCC6)nc5c4)[C@@H](O)[C@@H]3F)c3ncnc(N)c23)n1 [I-199] | > 8.00
Cn1ccc(-c2cn([C@@H]3C[C@H](CCc4ccc5ccc(N6CCC6)nc5c4)[C@@H](O)[C@@H]3F)c3ncnc(N)c23)n1 [I-211] | > 8.00
COCCN(C)C(=O)c1cn([C@@H]2O[C@H](COc3ccc4ccc(N5CCC5)nc4c3)[C@@H](O)[C@@H]2F)c2ncnc(N)c12 [I-217] | 7.00 to 8.00
Nc1ncnc2c1c(-c1ncco1)cn2[C@@H]1O[C@H](COc2ccc3ccc(N4CCC4)nc3c2)[C@@H](O)[C@@H]1F [I-219] | > 8.00

Same assay, conditions: read-out: METTL3 IC50; METTL3 biochemical assay

Structure (SMILES) | pIC50
CNc1ccc2ccc(OC[C@H]3O[C@@H](n4cc(-c5ccn(C(C)C)n5)c5c(N)ncnc54)[C@@H](F)[C@@H]3O)cc2n1 [I-2] | > 8.00
CCn1ccc(-c2cn([C@@H]3O[C@H](COc4ccc5ccc(NC)nc5c4)[C@@H](O)[C@@H]3F)c3ncnc(N)c23)n1 [I-3] | > 8.00

Test system: MOLM-13 cells
Assay: MOLM-13 96 Hour Cell Proliferation Assay
Type: cell-based
Settings: Homo sapiens
Description: MOLM-13 (DSMZ) cells were seeded at 600 cells per well in a volume of 44 μL in a Greiner Bio-One CELLSTAR™ 384 Well Polystyrene Cell Culture clear bottom microplate in RPMI 1640 media containing 10% fetal bovine serum using a Multidrop Combi (ThermoFisher Scientific). Cells were incubated overnight at 37° C. in a humidified tissue culture incubator. To prevent evaporation or to reduce edge effect, add 50 μL or more H2O to an empty plate, cover, and place on top of the cell plates. The Mosquito® HTS Liquid Handler was used to make a compound/media intermediate plate by aliquoting 1 μL of compound from the initial compound dilution plate (concentrations ranging from 10.0 mM to 38.0 nM in 100% DMSO) into Bio-One 384-well polypropylene conical bottom microplate containing 49 μL of media containing the appropriate serum (50-fold dilution, 2% DMSO, compound concentrations ranging from 200.0 μM and […]). The Apricot liquid handling system was used to transfer 6.2 μL compounds from the intermediate plate into the seeding plate containing 44 μL cells (8-fold dilution spanning concentrations 25.0 μM to […], 0.25% DMSO final), and placed in a humidified tissue culture incubator at 37° C. After 96 hours, 25 μL of Cell Titer-Glo reagent (Promega) was added to each well using an Integra liquid handling system. The plate was protected from light using TopSeal-A (Black) film over the entire plate, added White Bottom seal film on the bottom of the entire plate for a better reading on the Envision, and placed on an IKA plate shaker for at 300 rpm for 10 minutes at room temperature. The plate was read on an EnVision plate reader (Perkin Elmer) using the Ultra Sensitive Luminescence protocol. Data analysis was performed by normalizing the raw luminescence units to an average of the positive control values for staurosporine (100% cell death) and the negative control values for DMSO (0% cell death). An IC50 was calculated using a 4-parameter logistic nonlinear regression model in GraphPad Prism.

Structure (SMILES) | pIC50
CNc1ccc2ccc(OC[C@H]3O[C@@H](n4cc(-c5ccn(C(C)C)n5)c5c(N)ncnc54)[C@@H](F)[C@@H]3O)cc2n1 [I-2] | > 6.00
CCn1ccc(-c2cn([C@@H]3O[C@H](COc4ccc5ccc(NC)nc5c4)[C@@H](O)[C@@H]3F)c3ncnc(N)c23)n1 [I-3] | > 6.00
CCc1cc(N(C)C)c2ccc(OC[C@H]3O[C@@H](n4cc(-c5ccn(C)n5)c5c(N)ncnc54)[C@@H](F)[C@@H]3O)cc2n1 [I-153] | > 6.00
CCc1cc(N(C)C2CC2)c2ccc(OC[C@H]3O[C@@H](n4cc(-c5ccn(C)n5)c5c(N)ncnc54)[C@@H](F)[C@@H]3O)cc2n1 [I-154] | 5.00 to 6.00
CCc1cc(N(C)CC2CC2)c2ccc(OC[C@H]3O[C@@H](n4cc(-c5ccn(C)n5)c5c(N)ncnc54)[C@@H](F)[C@@H]3O)cc2n1 [I-155] | > 6.00
CCc1cc(N2CCOCC2)c2ccc(OC[C@H]3O[C@@H](n4cc(-c5ccn(C)n5)c5c(N)ncnc54)[C@@H](F)[C@@H]3O)cc2n1 [I-156] | > 6.00
CCc1cc(NCCOC)c2ncc(OC[C@H]3O[C@@H](n4cc(-c5ccn(C)n5)c5c(N)ncnc54)[C@H](O)[C@@H]3O)cc2n1 [I-159] | 5.00 to 6.00
CCc1cc(N(C)C2CC2)c2ccc(OC[C@H]3O[C@@H](n4cc(-c5ccn(C)n5)c5c(N)ncnc54)C[C@@H]3O)cc2n1 [I-160] | 5.00 to 6.00
CNc1ccc2sc(CC[C@H]3O[C@@H](n4cc(-c5ccn(C)n5)c5c(N)ncnc54)[C@@H](F)[C@@H]3O)cc2n1 [I-190] | > 6.00
Cn1ccc(-c2cn([C@@H]3O[C@H](COc4ccc5cnc(N6CCC6)nc5c4)[C@@H](O)[C@@H]3F)c3ncnc(N)c23)n1 [I-199] | 5.00 to 6.00
Cn1ccc(-c2cn([C@@H]3C[C@H](CCc4ccc5ccc(N6CCC6)nc5c4)[C@@H](O)[C@@H]3F)c3ncnc(N)c23)n1 [I-211] | > 6.00
COCCN(C)C(=O)c1cn([C@@H]2O[C@H](COc3ccc4ccc(N5CCC5)nc4c3)[C@@H](O)[C@@H]2F)c2ncnc(N)c12 [I-217] | < 5.00
Nc1ncnc2c1c(-c1ncco1)cn2[C@@H]1O[C@H](COc2ccc3ccc(N4CCC4)nc3c2)[C@@H](O)[C@@H]1F [I-219] | > 6.00

Biological target: PRMT5-MEP50 (Homo sapiens, UniProt O14744)
Assay: PRMT5 Assay (PRMT5 biochemical assay)
Settings: not given
Method in brief: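 Radiometric methyltransferase read-out: after 60 min reaction, excess unlabelled SAM (15 μM) stops turnover and biotinylated H4 peptide (100 nM) carrying 3H-methyl from 250 nM 3H-SAM is captured on streptavidin flashplates (2 h, 25° C) for scintillation counting. Enzyme, 2.5 nM PRMT5-MEP50, was preincubated 5 min with compound in pH 8.0 Tris buffer with DTT and Tween.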

Sequence of PRMT5-MEP50 (O14744 whole entry): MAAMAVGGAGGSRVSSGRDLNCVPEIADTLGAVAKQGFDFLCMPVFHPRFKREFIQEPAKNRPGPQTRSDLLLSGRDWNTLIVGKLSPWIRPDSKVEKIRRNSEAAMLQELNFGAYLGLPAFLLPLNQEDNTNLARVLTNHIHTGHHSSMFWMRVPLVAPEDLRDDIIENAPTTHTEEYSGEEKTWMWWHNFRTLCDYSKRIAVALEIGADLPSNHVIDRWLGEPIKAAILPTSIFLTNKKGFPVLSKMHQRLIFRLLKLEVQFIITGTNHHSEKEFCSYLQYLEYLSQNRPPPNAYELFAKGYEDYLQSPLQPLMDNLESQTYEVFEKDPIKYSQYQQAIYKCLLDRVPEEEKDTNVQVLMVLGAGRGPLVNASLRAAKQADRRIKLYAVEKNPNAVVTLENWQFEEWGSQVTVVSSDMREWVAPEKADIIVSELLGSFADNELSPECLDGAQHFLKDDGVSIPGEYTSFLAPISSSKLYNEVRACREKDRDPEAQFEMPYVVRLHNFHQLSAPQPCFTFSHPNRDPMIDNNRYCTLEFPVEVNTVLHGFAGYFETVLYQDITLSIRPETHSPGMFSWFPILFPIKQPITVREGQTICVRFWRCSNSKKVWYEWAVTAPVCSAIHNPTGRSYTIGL
Sequence of PRMT5-MEP50 (Q9BQA1 whole entry partner): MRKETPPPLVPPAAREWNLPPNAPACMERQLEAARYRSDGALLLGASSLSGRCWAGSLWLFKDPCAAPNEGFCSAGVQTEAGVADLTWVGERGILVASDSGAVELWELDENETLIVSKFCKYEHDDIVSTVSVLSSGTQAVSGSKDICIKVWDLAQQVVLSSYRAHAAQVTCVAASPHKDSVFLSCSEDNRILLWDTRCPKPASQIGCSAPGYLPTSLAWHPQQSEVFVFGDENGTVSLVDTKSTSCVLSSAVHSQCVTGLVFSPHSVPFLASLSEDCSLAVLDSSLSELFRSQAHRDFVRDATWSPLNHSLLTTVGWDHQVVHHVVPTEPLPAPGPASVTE

Structure (SMILES) | pIC50
CNc1ccc2sc(CC[C@H]3O[C@@H](n4cc(-c5ccn(C)n5)c5c(N)ncnc54)[C@@H](F)[C@@H]3O)cc2n1 [I-190] | 7.00 to 8.00
Cn1ccc(-c2cn([C@@H]3O[C@H](COc4ccc5cnc(N6CCC6)nc5c4)[C@@H](O)[C@@H]3F)c3ncnc(N)c23)n1 [I-199] | < 6.00
Cn1ccc(-c2cn([C@@H]3C[C@H](CCc4ccc5ccc(N6CCC6)nc5c4)[C@@H](O)[C@@H]3F)c3ncnc(N)c23)n1 [I-211] | < 6.00
COCCN(C)C(=O)c1cn([C@@H]2O[C@H](COc3ccc4ccc(N5CCC5)nc4c3)[C@@H](O)[C@@H]2F)c2ncnc(N)c12 [I-217] | < 6.00
Nc1ncnc2c1c(-c1ncco1)cn2[C@@H]1O[C@H](COc2ccc3ccc(N4CCC4)nc3c2)[C@@H](O)[C@@H]1F [I-219] | < 6.00

Same assay, conditions: read-out: PRMT5 IC50; PRMT5 biochemical assay

Structure (SMILES) | pIC50
CNc1ccc2ccc(OC[C@H]3O[C@@H](n4cc(-c5ccn(C(C)C)n5)c5c(N)ncnc54)[C@@H](F)[C@@H]3O)cc2n1 [I-2] | 6.00 to 7.00
CCn1ccc(-c2cn([C@@H]3O[C@H](COc4ccc5ccc(NC)nc5c4)[C@@H](O)[C@@H]3F)c3ncnc(N)c23)n1 [I-3] | 7.00 to 8.00

From patent US20230027361A1, “METTL3 MODULATORS” (priority 2019, published 2023)
